In brackets after ≈: the same amount, converted by molar mass.

Common to all, as to type: cell-based
The subject of data set [1] is HTB94 chondrosarcoma cells. As to the kind of experiment: Cell viability assay (MTS), HTB94 cells. The following applies: suramin 0–250 µg/ml, 72 hours. As to the method:
(§1) HTB94 chondrosarcoma cells or human OA chondrocytes (10^3 cells per well in 96-well plates) were plated overnight in DMEM with 10% FCS. Cells were washed in serum-free cartilage medium and treated for 48–72 hours with suramin (0–250 µg/ml) or sodium nitroprusside (10 mM) as a control to induce cell death. Cell viability was then assessed using the 3-(4,5-dimethylthiazol-2-yl)-5-(3-carboxymethoxyphenyl)-2-(4-sulfophenyl)-2H-tetrazolium CellTiter Cell Proliferation Assay (Promega) according to the manufacturer’s instructions (mean ± S.D., n = 3).

A further data set has as its system human OA chondrocytes. As to the kind of experiment: Cell viability assay (MTS), human OA chondrocytes. The following applies: suramin 0–250 µg/ml, 48 hours. As to the method:
as §1

The subject of a further data set is LRP1 ectodomain. As to the kind of experiment: Shedding of LRP1 ectodomain into medium of HTB94 cells (immunoblot). The following applies: suramin 50–250 µg/ml, 30 hours.
Data set [2] deals with human OA cartilage explants. As to the kind of experiment: Aggrecan release from human OA cartilage explants (DMMB assay). The following applies: 48 hours. As to the method:
The effects of suramin on cartilage degradation were assessed using porcine or human cartilage explants. Explants were rested for 48 hours after dissection and were washed with serum-free DMEM. Explants were then treated with retinoic acid (1 µM; Sigma-Aldrich), interleukin (IL)-1 (10 ng/ml; Peprotech, London, UK), and/or suramin (0–250 µg/ml) in serum-free DMEM for 48 hours.
Aggrecan degradation was analyzed by quantifying aggrecan fragments released into the conditioned media using the dimethylmethylene blue (DMMB) dye-binding assay ([Farndale et al., 1986]) (mean ± S.D., n = 3) and by immunoblotting with neo-epitope antibodies that recognize ADAMTS-cleaved but not intact aggrecan. For immunoblotting, conditioned media were deglycosylated by adding an equal volume of 200 mM sodium acetate and 50 mM Tris/HCl, pH 6.8, containing chondroitinase and β-endoglycosidase (0.05 U each; 18 hours, 37°C; Sigma-Aldrich). Aggrecan fragments were precipitated by adding five volumes of ice-cold acetone (18 hours, −20°C). After centrifugation (13,000 rpm, 10 minutes, 4°C), pellets were resuspended in SDS sample buffer, separated by electrophoresis on a 6% (v/v) polyacrylamide gel, and blotted onto polyvinylidene fluoride. […]

For `Cc1ccc(C(=O)Nc2ccc(S(=O)(=O)O)c3cc(S(=O)(=O)O)cc(S(=O)(=O)O)c23)cc1NC(=O)c1cccc(NC(=O)Nc2cccc(C(=O)Nc3cc(C(=O)Nc4ccc(S(=O)(=O)O)c5cc(S(=O)(=O)O)cc(S(=O)(=O)O)c45)ccc3C)c2)c1` [suramin], the “cell viability (MTS)” value was “no effect” in data set [1], “did not affect” in the data set on human OA chondrocytes and “without any significant change” in the data set on human OA chondrocytes (listed as Suramin). Moreover, the “shedding of LRP1 ectodomain into the medium” value in the data set on LRP1 ectodomain is on record as “not affected”. In data set [2] (human OA cartilage explants stimulated with IL-1 10 ng/ml or retinoic acid 1 µM), the aggrecan degradation result is recorded as “dose-dependently inhibited”. The IC50 in data set [2] (human OA cartilage explants, retinoic acid 1 µM, read-out: IC50 for inhibition of aggrecan degradation) worked out at 62 ± 16 µg/mL (≈ 47.8 µM).

The values above are taken from paper PMC5588548, “Suramin Inhibits Osteoarthritic Cartilage Degradation by Increasing Extracellular Levels of Chondroprotective Tissue Inhibitor of Metalloproteinases 3” (Molecular Pharmacology, 2017).
